In this test the test system is MC38 colorectal tumor. Kind of test: syngeneic MC38 colorectal tumor model in C57BL/6 mice. To be noted: FIG. 1 experiment. Type of test: in vivo.

Protocol: Mice with established subcutaneous MC38 tumors of approximately 100-200 mm^3 were treated with single-dose carboplatin at 80 mg/kg by intraperitoneal (IP) injection plus paclitaxel at 10 mg/kg injected intravenously (IV), and anti-gp120 antibody or anti-PD-L1 (clone 25A1 mIgG2a.DANA) at 10 mg/kg dosed 3 times a week for 3 weeks. N=10 mice/group.
Mice with established subcutaneous MC38 tumors of approximately 100-200 mm^3 were treated with a single dose of either saline or dexamethasone at 4 mg/kg IV and 12 hours later, treated with either control anti-gp120 antibody or anti-PD-L1 (clone 25A1.mIgG2a.DANA) at 10 mg/kg IP 3 times a week for 3 weeks. N=10 mice/group.
Mice with established subcutaneous MC38 tumors of approximately 300 mm^3 were treated with anti-gp120 control antibody or anti-PD-L1 antibody (clone YW243.55.570 mIgG2a.DANA) administered by IP injection at 10 mg/kg 3 times a week for 3 weeks, plus saline or carboplatin at 75 mg/kg IP weekly for 3 weeks plus ABRAXANE® at 15 mg/kg iv weekly for 3 weeks, as indicated. N=8 mice/group.
MC38 colorectal tumor cell lines were maintained at Genentech. 7-10 week old C57BL/6 female mice (Charles River Laboratories; Hollister, Calif.) were inoculated subcutaneously in the right unilateral flank with 0.1 million MC38 cells. […]

Turning to paclitaxel+carboplatin, the “mice with partial response (in words)” value (N=10 mice/group) is “no mice”. Also, the “time to progression (TTP), 5× the initial tumor volume” value (tumors approximately 100-200 mm^3 at start, anti-PD-L1 clone 25A1) was found to be 15.5 days.

Source of the values: US10570213B2, “Methods of treating cancers using PD-1 axis binding antagonists and taxanes” (Genentech, Inc., priority 2013, dated 2020).
